Ki data for 26 compounds are collected here from patent US20200199127A1, “(HETERO)ARYLALKYLAMINO-PYRAZOLOPYRIDAZINE DERIVATIVES HAVING MULTIMODAL ACTIVITY AGAINST PAIN” (priority 2017, published 2020).

The target in assay [1] is Human norepinephrine transporter (NET) (Homo sapiens, UniProt P23975). Briefly: Binding assay to human norepinephrine transporter (NET), [3H]-Nisoxetin. The conditions noted are these: human NET enriched membranes, 5 nM [3H]-Nisoxetin; Ki as class symbol. As for the experimental part:
Binding Assay to Human Norepinephrine Transporter (NET).
Human norepinephrine transporter (NET) enriched membranes (5 μg) were incubated with 5 nM of radiolabeled [3H]-Nisoxetin in assay buffer containing 50 mM Tris-HCl, 120 mM NaCl, 5 mM KCl, pH 7.4.
NSB (non specific binding) was measured by adding 10 μM of desipramine. The binding of the test compound was measured at five different concentrations.. After 60 min incubation at 4° C., binding reaction was terminated by filtering through Multiscreen GF/C (Millipore) presoaked in 0.5% polyethyleneimine in Vacuum Manifold Station, followed by 3 washes with ice-cold filtration buffer containing 50 mM Tris-HCl, 0.9% NaCl, pH 7.4.
Filter plates were dried at 60° C. for 1 hour and 30 μl of scintillation cocktail were added to each well before radioactivity reading.

Assay [2] deals with Human α2δ-1 subunit of Cav2.2 calcium channel (Homo sapiens, UniProt P54289). Briefly: Human α2δ-1 subunit of Cav2.2 calcium channel assay, [3H]-Gabapentin binding. The note with it: human α2δ-1 enriched membranes, 15 nM [3H]-Gabapentin; Ki as class symbol. As for the experimental part: Human α2δ-1 Subunit of Cav2.2 Calcium Channel Assay
Sequence of Human α2δ-1 subunit of Cav2.2 calcium channel (P54289 25-1103): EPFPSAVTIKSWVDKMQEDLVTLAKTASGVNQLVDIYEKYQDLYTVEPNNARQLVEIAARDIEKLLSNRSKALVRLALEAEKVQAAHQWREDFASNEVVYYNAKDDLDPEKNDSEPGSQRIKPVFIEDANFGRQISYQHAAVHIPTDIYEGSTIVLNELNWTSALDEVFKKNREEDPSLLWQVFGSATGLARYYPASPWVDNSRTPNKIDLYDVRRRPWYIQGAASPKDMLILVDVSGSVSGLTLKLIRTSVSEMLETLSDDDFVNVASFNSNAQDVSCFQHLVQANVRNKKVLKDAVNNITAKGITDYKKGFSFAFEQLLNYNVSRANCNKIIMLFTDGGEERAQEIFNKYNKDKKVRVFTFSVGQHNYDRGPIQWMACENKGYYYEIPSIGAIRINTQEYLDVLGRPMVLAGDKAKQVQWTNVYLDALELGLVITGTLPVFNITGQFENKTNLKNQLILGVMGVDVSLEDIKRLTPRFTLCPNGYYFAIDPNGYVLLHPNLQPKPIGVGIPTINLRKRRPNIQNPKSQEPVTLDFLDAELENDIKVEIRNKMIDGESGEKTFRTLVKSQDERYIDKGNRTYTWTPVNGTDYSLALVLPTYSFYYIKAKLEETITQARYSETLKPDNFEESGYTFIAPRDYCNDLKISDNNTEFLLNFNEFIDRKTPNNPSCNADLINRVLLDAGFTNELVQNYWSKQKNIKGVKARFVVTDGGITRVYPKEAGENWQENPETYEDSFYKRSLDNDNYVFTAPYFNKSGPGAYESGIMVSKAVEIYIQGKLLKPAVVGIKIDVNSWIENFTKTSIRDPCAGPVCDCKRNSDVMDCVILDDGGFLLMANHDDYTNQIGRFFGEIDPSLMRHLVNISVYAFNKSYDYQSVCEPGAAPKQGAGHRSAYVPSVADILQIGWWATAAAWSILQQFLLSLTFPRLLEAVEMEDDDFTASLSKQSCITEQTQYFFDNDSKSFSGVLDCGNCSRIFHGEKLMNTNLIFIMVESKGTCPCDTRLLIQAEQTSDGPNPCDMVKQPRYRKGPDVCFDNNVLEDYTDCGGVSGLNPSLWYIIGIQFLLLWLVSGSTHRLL
Human α2δ-1 enriched membranes (2.5 μg) were incubated with 15 nM of radiolabeled [3H]-Gabapentin in assay buffer containing Hepes-KOH 10 mM, pH 7.4. NSB (non specific binding) was measured by adding 10 μM pregabalin. The binding of the test compound was measured at five different concentrations. After 60 min incubation at 27° C., binding reaction was terminated by filtering through Multiscreen GF/C (Millipore) presoaked in 0.5% polyethyleneimine in Vacuum Manifold Station, followed by 3 washes with ice-cold filtration buffer containing 50 mM Tris-HCl, pH 7.4. Filter plates were dried at 60° C. for 1 hour and 30 μl of scintillation cocktail were added to each well before radioactivity reading. Readings were performed in a Trilux 1450 Microbeta radioactive counter (Perkin Elmer).

Sequence of Human norepinephrine transporter (NET) (P23975 whole entry): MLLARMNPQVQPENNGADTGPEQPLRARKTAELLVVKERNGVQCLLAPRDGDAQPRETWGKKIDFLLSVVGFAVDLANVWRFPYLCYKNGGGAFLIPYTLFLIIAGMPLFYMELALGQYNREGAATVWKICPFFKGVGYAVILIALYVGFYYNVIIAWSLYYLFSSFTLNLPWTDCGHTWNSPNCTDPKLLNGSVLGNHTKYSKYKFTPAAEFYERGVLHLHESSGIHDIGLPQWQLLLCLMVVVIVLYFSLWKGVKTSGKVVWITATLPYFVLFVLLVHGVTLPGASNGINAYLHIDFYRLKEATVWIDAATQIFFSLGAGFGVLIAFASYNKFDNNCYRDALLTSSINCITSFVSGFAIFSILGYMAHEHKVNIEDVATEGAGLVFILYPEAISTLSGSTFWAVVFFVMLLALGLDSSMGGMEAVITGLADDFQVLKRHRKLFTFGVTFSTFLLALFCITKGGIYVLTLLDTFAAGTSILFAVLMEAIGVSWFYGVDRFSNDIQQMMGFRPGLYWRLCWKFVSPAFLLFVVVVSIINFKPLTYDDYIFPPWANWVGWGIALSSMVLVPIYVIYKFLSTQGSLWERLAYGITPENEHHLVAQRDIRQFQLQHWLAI

The Ki is a dissociation constant, usually derived from enzyme kinetics or from competition with a known ligand. Consider `CCOc1ccc(-n2nc3c(NCC(O)Cc4ccccc4)nnc(C)c3c2C)c(F)c1` (stereo not shown) [Example 19, 1-((2-(4-ethoxy-2-fluorophenyl)-3,4-dimethyl-2H-pyrazolo[3,4-d]pyridazin-7-yl)amino)-3-phenylpropan-2-ol], for which the Ki was over 1000 nM in assay [1] and 100 to 500 nM in assay [2].
The corresponding values for `CCOc1ccc(-n2nc3c(NCc4ncccc4C(F)(F)F)nnc(C)c3c2C)c(F)c1` [Example 20, 2-(4-ethoxy-2-fluorophenyl)-3,4-dimethyl-N-((3-(trifluoromethyl)pyridin-2-yl)methyl)-2H-pyrazolo[3,4-d]pyridazin-7-amine] are over 1000 nM and 100 to 500 nM.
For `CCOc1ccc(-n2nc3c(N(C)CCCc4ccccc4O)nnc(C)c3c2C)c(F)c1` [Example 21, 2-(3-((2-(4-ethoxy-2-fluorophenyl)-3,4-dimethyl-2H-pyrazolo[3,4-d]pyridazin-7-yl)(methyl)amino)propyl)phenol], in that order: 500 to 1000 nM and at least 5000 nM.
For `CCOc1ccc(-n2nc3c(NCc4cc(C)ccn4)nnc(C)c3c2C)c(F)c1` [Example 22, 2-(4-ethoxy-2-fluorophenyl)-3,4-dimethyl-N-((4-methylpyridin-2-yl)methyl)-2H-pyrazolo[3,4-d]pyridazin-7-amine], in that order: over 1000 nM and 100 to 500 nM.
Consider `CCOc1ccc(-n2nc3c(N(C)Cc4ccccc4O)nnc(C)c3c2C)c(F)c1` [Example 23, 2-(((2-(4-ethoxy-2-fluorophenyl)-3,4-dimethyl-2H-pyrazolo[3,4-d]pyridazin-7-yl)(methyl)amino)methyl)phenol], for which the values for the Ki in assay [1] and in assay [2] were 500 to 1000 nM and 100 to 500 nM, respectively.
Take `CCOc1ccc(-n2nc3c(N(C)Cc4cnc[nH]4)nnc(C)c3c2C)c(F)c1` [Example 24, N-((1H-imidazol-5-yl)methyl)-2-(4-ethoxy-2-fluorophenyl)-N,3,4-trimethyl-2H-pyrazolo[3,4-d]pyridazin-7-amine]: the Ki in assay [1] was over 1000 nM; in assay [2], 100 to 500 nM.
`CCOc1ccc(-n2nc3c(N(C)Cc4ncc[nH]4)nnc(C)c3c2C)c(F)c1` [Example 25, N-((1H-imidazol-2-yl)methyl)-2-(4-ethoxy-2-fluorophenyl)-N,3,4-trimethyl-2H-pyrazolo[3,4-d]pyridazin-7-amine]: the Ki is over 1000 nM in assay [1] and 500 to 5000 nM in assay [2].
On to `CCOc1ccc(-n2nc3c(N(C)Cc4ncccn4)nnc(C)c3c2C)c(F)c1` [Example 26, 2-(4-ethoxy-2-fluorophenyl)-N,3,4-trimethyl-N-(pyrimidin-2-ylmethyl)-2H-pyrazolo[3,4-d]pyridazin-7-amine], for which the Ki in assay [1] is over 1000 nM; in assay [2], 100 to 500 nM.
For `CCOc1ccc(-n2nc3c(N(C)Cc4ccon4)nnc(C)c3c2C)c(F)c1` [Example 27, 2-(4-ethoxy-2-fluorophenyl)-N-(isoxazol-3-ylmethyl)-N,3,4-trimethyl-2H-pyrazolo[3,4-d]pyridazin-7-amine], in that order: over 1000 nM and 500 to 5000 nM.
For `CCOc1ccc(-n2nc3c(N(C)Cc4ccn[nH]4)nnc(C)c3c2C)c(F)c1` [Example 28, N-((1H-pyrazol-5-yl)methyl)-2-(4-ethoxy-2-fluorophenyl)-N,3,4-trimethyl-2H-pyrazolo[3,4-d]pyridazin-7-amine], in that order: over 1000 nM and 100 to 500 nM.
Consider `CCOc1ccc(-n2nc3c(N(C)Cc4cscn4)nnc(C)c3c2C)c(F)c1` [Example 29, 2-(4-ethoxy-2-fluorophenyl)-N,3,4-trimethyl-N-(thiazol-4-ylmethyl)-2H-pyrazolo[3,4-d]pyridazin-7-amine], for which the Ki is over 1000 nM in assay [1] and 100 to 500 nM in assay [2].
For `CCOc1ccc(-n2nc3c(N(C)Cc4cccc(OC)n4)nnc(C)c3c2C)c(F)c1` [Example 30, 2-(4-ethoxy-2-fluorophenyl)-N-((6-methoxypyridin-2-yl)methyl)-N,3,4-trimethyl-2H-pyrazolo[3,4-d]pyridazin-7-amine], in that order: 500 to 1000 nM and 100 to 500 nM.
On to `CCOc1ccc(-n2nc3c(N(C)Cc4cc(OC)ccn4)nnc(C)c3c2C)c(F)c1` [Example 31, 2-(4-ethoxy-2-fluorophenyl)-N-((4-methoxypyridin-2-yl)methyl)-N,3,4-trimethyl-2H-pyrazolo[3,4-d]pyridazin-7-amine], for which the Ki in assay [1] is over 1000 nM; in assay [2] it was 100 to 500 nM.
The corresponding values for `CCOc1ccc(-n2nc3c(N(C)Cc4ncccc4C)nnc(C)c3c2C)c(F)c1` [Example 32, 2-(4-ethoxy-2-fluorophenyl)-N,3,4-trimethyl-N-((3-methylpyridin-2-yl)methyl)-2H-pyrazolo[3,4-d]pyridazin-7-amine] are 100 to 500 nM and 100 to 500 nM.
For `CCOc1ccc(-n2nc3c(N(C)Cc4ncccc4F)nnc(C)c3c2C)c(F)c1` [Example 33, 2-(4-ethoxy-2-fluorophenyl)-N-((3-fluoropyridin-2-yl)methyl)-N,3,4-trimethyl-2H-pyrazolo[3,4-d]pyridazin-7-amine], in that order: 100 to 500 nM and 100 to 500 nM.
In the case of `CCOc1ccc(-n2nc3c(N(C)Cc4ccc(C)cn4)nnc(C)c3c2C)c(F)c1` [Example 34, 2-(4-ethoxy-2-fluorophenyl)-N,3,4-trimethyl-N-((5-methylpyridin-2-yl)methyl)-2H-pyrazolo[3,4-d]pyridazin-7-amine], the figures for the Ki in assay [1] and in assay [2] were over 1000 nM and 100 to 500 nM, respectively.
For `CCOc1ccc(-n2nc3c(N(C)Cc4cnccn4)nnc(C)c3c2C)c(F)c1` [Example 35, 2-(4-ethoxy-2-fluorophenyl)-N,3,4-trimethyl-N-(pyrazin-2-ylmethyl)-2H-pyrazolo[3,4-d]pyridazin-7-amine], in that order: over 1000 nM and 100 to 500 nM.
Turning to `CCOc1ccc(-n2nc3c(N(C)Cc4ccncn4)nnc(C)c3c2C)c(F)c1` [Example 36, 2-(4-ethoxy-2-fluorophenyl)-N,3,4-trimethyl-N-(pyrimidin-4-ylmethyl)-2H-pyrazolo[3,4-d]pyridazin-7-amine], the Ki was over 1000 nM in assay [1] and 100 to 500 nM in assay [2].
The corresponding values for `CCOc1ccc(-n2nc3c(NCc4ccccc4CO)nnc(C)c3c2C)c(F)c1` [Example 37, (2-(((2-(4-ethoxy-2-fluorophenyl)-3,4-dimethyl-2H-pyrazolo[3,4-d]pyridazin-7-yl)amino)methyl)phenyl)methanol] are over 1000 nM and 100 to 500 nM.
The corresponding values for `CCOc1ccc(-n2nc3c(N(C)CCC(N)c4ccccc4)nnc(C)c3c2C)c(F)c1` (stereo not shown) [Example 39, N1-(2-(4-ethoxy-2-fluorophenyl)-3,4-dimethyl-2H-pyrazolo[3,4-d]pyridazin-7-yl)-N1-methyl-3-phenylpropane-1,3-diamine] are 500 to 1000 nM and at least 5000 nM.
The corresponding values for `CCOc1ccc(-n2nc3c(N(CC)Cc4ccccn4)nnc(C)c3c2C)c(F)c1` [Example 40, 2-(4-ethoxy-2-fluorophenyl)-N-ethyl-3,4-dimethyl-N-(pyridin-2-ylmethyl)-2H-pyrazolo[3,4-d]pyridazin-7-amine] are 100 to 500 nM and 500 to 5000 nM.
As for `CCOc1ccc(-n2nc3c(N(C)Cc4ccccc4CNC)nnc(C)c3c2C)c(F)c1` [Example 43, 2-(4-ethoxy-2-fluorophenyl)-N,3,4-trimethyl-N-(2-((methylamino)methyl)benzyl)-2H-pyrazolo[3,4-d]pyridazin-7-amine], the Ki in assay [1] fell in the range of 100 to 500 nM; in assay [2], 500 to 5000 nM.
For `COc1ccc(-n2nc3c(N(C)Cc4ccccn4)nnc(C)c3c2C)c(F)c1` [Example 45, 2-(2-fluoro-4-methoxyphenyl)-N,3,4-trimethyl-N-(pyridin-2-ylmethyl)-2H-pyrazolo[3,4-d]pyridazin-7-amine], in that order: over 1000 nM and at least 5000 nM.
For `Cc1nnc(N(C)Cc2ccccn2)c2nn(-c3ccc(O)cc3)c(C)c12` [Example 47, 4-(3,4-dimethyl-7-(methyl(pyridin-2-ylmethyl)amino)-2H-pyrazolo[3,4-d]pyridazin-2-yl)phenol], in that order: over 1000 nM and at least 5000 nM.
On to `COc1ccc(-n2nc3c(N(C)Cc4ccccn4)nnc(C)c3c2C)cc1` [Example 48, 2-(4-methoxyphenyl)-N,3,4-trimethyl-N-(pyridin-2-ylmethyl)-2H-pyrazolo[3,4-d]pyridazin-7-amine], for which the results for the Ki in assay [1] and in assay [2] were over 1000 nM and 500 to 5000 nM, respectively.
`CCOc1ccc(-n2nc3c(N(CCO)Cc4ccncc4)nnc(C)c3c2C)c(F)c1` [Example 53, 2-((2-(4-Ethoxy-2-fluorophenyl)-3,4-dimethyl-2H-pyrazolo[3,4-d]pyridazin-7-yl)(pyridin-4-ylmethyl)amino)ethanol]: the inhibition constant (Ki) in assay [1] is over 1000 nM; in assay [2], at least 5000 nM.
